Several values for one entry are separate records, joined by “and”; a condition that tells them apart may be missing. Identical values can stand only once. Entries after “also recorded” stand apart in the source; their conditions may differ.
Assays:
[1] = system: MMP1 chromosome conformations; experiment: MMP-1 3C quantification in DBTRG-05MG (glioblastoma) cells treated with GSK864; type: cell-based
Procedure: (§1) MMP-1 3C quantification with no-fixation controls and a formaldehyde treated samples. The exemplary cell lines used in this application are: • (a) DBTRG-05MG (glioblastoma). • (b) HL-60 (acute myeloid leukaemia).
These cell lines have been treated with the IDH1 inhibitor GSK864 over 24 hrs and 48 hrs.

[2] = system: MMP1 chromosome conformations; experiment: MMP-1 3C quantification in HL-60 (acute myeloid leukaemia) cells treated with GSK864; type: cell-based
Procedure: as §1
The HL60 cell lines have been treated with the IDH1 inhibitor GSK864 over 24 hrs and 48 hrs.

[3] = system: cKIT 3C interaction ORF3_4_54711719_54715167_54736749_54740853_FR; experiment: cKIT 3C interaction PCR on imatinib treated BT142 cells; type: cell-based; settings: 1 μm imatinib, 20 ng of template per well
Procedure: Example of novel data regarding the action of imatinib in the following imatinib responsive selected gene is described below. 20 ng of template was added to each well for samples treated with imatinib.
cKIT and exemplary data. The BT142 cells have been treated with 1 μm of imatinib. 20 ng of template was loaded into each well.
The product in well Cl has been confirmed as the cKIT interaction named above (ORF3_4_54711719_54715167_54736749_54740853_FR).

MMP1 3C interaction = MMP1 3C interaction hydrolysis probe qPCR in BT142 cell line; settings: BT142 cells, imatinib 1 μM

Row | Compound | Effect on MMP1 chromosome conformations (3C MMP1 copy number), in words ([1]; DBTRG cell line, GSK864 1 μm, over 24 hrs and 48 hrs) | Copy number in 20 ng ([1]; DBTRG cells, 24 hr, GSK 1 um, MMP1 3C) | Effect on MMP1 chromosome conformations (3C MMP1 copy number), in words ([2]; HL60 cell line, GSK864 1 μm, over 24 hrs and 48 hrs) | Cq ([2]; HL-60 cells, 48 hr GSK864) | cKIT 3C interaction in imatinib treated cells [3] | MMP1 copy number (MMP1 3C interaction; 20 ng of template per well) | Cq (MMP1 3C interaction; MMP1 3C interaction)
1 | COc1c(C)cc(NC(=O)c2nn(Cc3ccc(F)cc3)c3c2CN(C(=O)c2ccc[nH]2)C[C@]3(C)C(N)=O)cc1C [GSK864] | binary difference; also recorded: direct action on 3C MMP1 copy number | NaN (NaN = 0 copies) | quantitative differences; also recorded: binary quantitative difference; also recorded: direct action on 3C MMP1 copy number | 40.33 and 37.5 and 37.11 |  |  | 
2 | Cc1ccc(NC(=O)c2ccc(CN3CCN(C)CC3)cc2)cc1Nc1nccc(-c2cccnc2)n1 [Imatinib] |  |  |  |  | completely absent | 37.22 and 26.43 and 31.45 | 35.64 and 36.15 and 35.89
